# Results from patent publication US8192962B2, “Processes for detecting toxic substances” (Daikin Industries, Ltd., priority 2001, dated 2012).
# Test system: Stress protein genes
# Assay: DNA chip mRNA expression in yeast, stress protein genes (Table 6)
# Type: cell-based, Saccharomyces cerevisiae S288C
# Method in brief: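 Ratios compare mRNA levels in stressed and control S. cerevisiae. Each toxicant was applied for two hours to log-phase cultures at 25° C. at a sub-lethal, growth-inhibiting level; fluorescent cDNA (Cy3- or Cy5-dUTP) was hybridized to a genome-wide yeast chip for over 12 h at 65° C.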
structure (smiles),measurement,setting,value
"Oc1cc(Cl)c(Cl)cc1Cl [(6), 2,4,5-trichlorophenol]",The level of expressed mRNA in the presence of chemical substance/The level of expressed mRNA in the absence of chemical substance,yeast gene YAL005C,1.6
same,The level of expressed mRNA in the presence of chemical substance/The level of expressed mRNA in the absence of chemical substance,yeast gene YAL015C,0.7
same,The level of expressed mRNA in the presence of chemical substance/The level of expressed mRNA in the absence of chemical substance,yeast gene YBL075C,0.8
same,The level of expressed mRNA in the presence of chemical substance/The level of expressed mRNA in the absence of chemical substance,yeast gene YBL093C,0.8
same,The level of expressed mRNA in the presence of chemical substance/The level of expressed mRNA in the absence of chemical substance,yeast gene YBR044C,1.0
same,The level of expressed mRNA in the presence of chemical substance/The level of expressed mRNA in the absence of chemical substance,yeast gene YBR054W,1.1
same,The level of expressed mRNA in the presence of chemical substance/The level of expressed mRNA in the absence of chemical substance,yeast gene YBR067C,1.1
same,The level of expressed mRNA in the presence of chemical substance/The level of expressed mRNA in the absence of chemical substance,yeast gene YBR072W,32.2
same,The level of expressed mRNA in the presence of chemical substance/The level of expressed mRNA in the absence of chemical substance,yeast gene YBR126C,2.9
same,The level of expressed mRNA in the presence of chemical substance/The level of expressed mRNA in the absence of chemical substance,yeast gene YBR169C,4.9
same,The level of expressed mRNA in the presence of chemical substance/The level of expressed mRNA in the absence of chemical substance,yeast gene YCL035C,5.1
same,The level of expressed mRNA in the presence of chemical substance/The level of expressed mRNA in the absence of chemical substance,yeast gene YCR021C,2.2
same,The level of expressed mRNA in the presence of chemical substance/The level of expressed mRNA in the absence of chemical substance,yeast gene YCR060W,3.3
same,The level of expressed mRNA in the presence of chemical substance/The level of expressed mRNA in the absence of chemical substance,yeast gene YCR083W,2.4
same,The level of expressed mRNA in the presence of chemical substance/The level of expressed mRNA in the absence of chemical substance,yeast gene YDL022W,2.1
same,The level of expressed mRNA in the presence of chemical substance/The level of expressed mRNA in the absence of chemical substance,yeast gene YDL025C,0.6
same,The level of expressed mRNA in the presence of chemical substance/The level of expressed mRNA in the absence of chemical substance,yeast gene YDR033W,6.7
same,The level of expressed mRNA in the presence of chemical substance/The level of expressed mRNA in the absence of chemical substance,yeast gene YDR077W,1.0
same,The level of expressed mRNA in the presence of chemical substance/The level of expressed mRNA in the absence of chemical substance,yeast gene YDR098C,1.1
same,The level of expressed mRNA in the presence of chemical substance/The level of expressed mRNA in the absence of chemical substance,yeast gene YDR155C,1.5
same,The level of expressed mRNA in the presence of chemical substance/The level of expressed mRNA in the absence of chemical substance,yeast gene YDR258C,2.4
same,The level of expressed mRNA in the presence of chemical substance/The level of expressed mRNA in the absence of chemical substance,yeast gene YDR293C,0.9
same,The level of expressed mRNA in the presence of chemical substance/The level of expressed mRNA in the absence of chemical substance,yeast gene YDR436W,1.1
same,The level of expressed mRNA in the presence of chemical substance/The level of expressed mRNA in the absence of chemical substance,yeast gene YDR513W,2.1
same,The level of expressed mRNA in the presence of chemical substance/The level of expressed mRNA in the absence of chemical substance,yeast gene YDR519W,1.3
same,The level of expressed mRNA in the presence of chemical substance/The level of expressed mRNA in the absence of chemical substance,yeast gene YEL030W,0.6
same,The level of expressed mRNA in the presence of chemical substance/The level of expressed mRNA in the absence of chemical substance,yeast gene YEL039C,1.5
same,The level of expressed mRNA in the presence of chemical substance/The level of expressed mRNA in the absence of chemical substance,yeast gene YER042W,1.6
same,The level of expressed mRNA in the presence of chemical substance/The level of expressed mRNA in the absence of chemical substance,yeast gene YER057C,1.6
same,The level of expressed mRNA in the presence of chemical substance/The level of expressed mRNA in the absence of chemical substance,yeast gene YER103W,1.7
same,The level of expressed mRNA in the presence of chemical substance/The level of expressed mRNA in the absence of chemical substance,yeast gene YER125W,0.7
same,The level of expressed mRNA in the presence of chemical substance/The level of expressed mRNA in the absence of chemical substance,yeast gene YFL014W,9.3
same,The level of expressed mRNA in the presence of chemical substance/The level of expressed mRNA in the absence of chemical substance,yeast gene YFL016C,1.3
same,The level of expressed mRNA in the presence of chemical substance/The level of expressed mRNA in the absence of chemical substance,yeast gene YFL020C,2.0
same,The level of expressed mRNA in the presence of chemical substance/The level of expressed mRNA in the absence of chemical substance,yeast gene YFR052W,3.2
same,The level of expressed mRNA in the presence of chemical substance/The level of expressed mRNA in the absence of chemical substance,yeast gene YGL073W,1.9
same,The level of expressed mRNA in the presence of chemical substance/The level of expressed mRNA in the absence of chemical substance,yeast gene YGL115W,1.2
same,The level of expressed mRNA in the presence of chemical substance/The level of expressed mRNA in the absence of chemical substance,yeast gene YGL181W,1.9
same,The level of expressed mRNA in the presence of chemical substance/The level of expressed mRNA in the absence of chemical substance,yeast gene YGR088W,1.3
same,The level of expressed mRNA in the presence of chemical substance/The level of expressed mRNA in the absence of chemical substance,yeast gene YHL028W,1.8
same,The level of expressed mRNA in the presence of chemical substance/The level of expressed mRNA in the absence of chemical substance,yeast gene YHL046C,0.8
same,The level of expressed mRNA in the presence of chemical substance/The level of expressed mRNA in the absence of chemical substance,yeast gene YHR030C,0.9
same,The level of expressed mRNA in the presence of chemical substance/The level of expressed mRNA in the absence of chemical substance,yeast gene YHR057C,1.3
same,The level of expressed mRNA in the presence of chemical substance/The level of expressed mRNA in the absence of chemical substance,yeast gene YHR104W,1.2
same,The level of expressed mRNA in the presence of chemical substance/The level of expressed mRNA in the absence of chemical substance,yeast gene YIL011W,0.7
same,The level of expressed mRNA in the presence of chemical substance/The level of expressed mRNA in the absence of chemical substance,yeast gene YIL033C,2.0
same,The level of expressed mRNA in the presence of chemical substance/The level of expressed mRNA in the absence of chemical substance,yeast gene YIR037W,2.7
same,The level of expressed mRNA in the presence of chemical substance/The level of expressed mRNA in the absence of chemical substance,yeast gene YIR038C,2.5
same,The level of expressed mRNA in the presence of chemical substance/The level of expressed mRNA in the absence of chemical substance,yeast gene YJL128C,1.3
same,The level of expressed mRNA in the presence of chemical substance/The level of expressed mRNA in the absence of chemical substance,yeast gene YJL158C,0.5
same,The level of expressed mRNA in the presence of chemical substance/The level of expressed mRNA in the absence of chemical substance,yeast gene YJL159W,1.8
same,The level of expressed mRNA in the presence of chemical substance/The level of expressed mRNA in the absence of chemical substance,yeast gene YJL165C,0.5
same,The level of expressed mRNA in the presence of chemical substance/The level of expressed mRNA in the absence of chemical substance,yeast gene YJR045C,1.2
same,The level of expressed mRNA in the presence of chemical substance/The level of expressed mRNA in the absence of chemical substance,yeast gene YJR090C,1.2
same,The level of expressed mRNA in the presence of chemical substance/The level of expressed mRNA in the absence of chemical substance,yeast gene YKL161C,2.0
same,The level of expressed mRNA in the presence of chemical substance/The level of expressed mRNA in the absence of chemical substance,yeast gene YKL163W,1.1
same,The level of expressed mRNA in the presence of chemical substance/The level of expressed mRNA in the absence of chemical substance,yeast gene YKL164C,1.4
same,The level of expressed mRNA in the presence of chemical substance/The level of expressed mRNA in the absence of chemical substance,yeast gene YKL210W,1.4
same,The level of expressed mRNA in the presence of chemical substance/The level of expressed mRNA in the absence of chemical substance,yeast gene YKR053C,1.1
same,The level of expressed mRNA in the presence of chemical substance/The level of expressed mRNA in the absence of chemical substance,yeast gene YLL024C,1.0
same,The level of expressed mRNA in the presence of chemical substance/The level of expressed mRNA in the absence of chemical substance,yeast gene YLL026W,1.9
same,The level of expressed mRNA in the presence of chemical substance/The level of expressed mRNA in the absence of chemical substance,yeast gene YLL039C,1.5
same,The level of expressed mRNA in the presence of chemical substance/The level of expressed mRNA in the absence of chemical substance,yeast gene YLL060C,1.4
same,The level of expressed mRNA in the presence of chemical substance/The level of expressed mRNA in the absence of chemical substance,yeast gene YLR006C,0.9
same,The level of expressed mRNA in the presence of chemical substance/The level of expressed mRNA in the absence of chemical substance,yeast gene YLR109W,2.1
same,The level of expressed mRNA in the presence of chemical substance/The level of expressed mRNA in the absence of chemical substance,yeast gene YLR259C,0.9
same,The level of expressed mRNA in the presence of chemical substance/The level of expressed mRNA in the absence of chemical substance,yeast gene YML007W,0.5
same,The level of expressed mRNA in the presence of chemical substance/The level of expressed mRNA in the absence of chemical substance,yeast gene YML070W,2.2
same,The level of expressed mRNA in the presence of chemical substance/The level of expressed mRNA in the absence of chemical substance,yeast gene YMR021C,2.2
same,The level of expressed mRNA in the presence of chemical substance/The level of expressed mRNA in the absence of chemical substance,yeast gene YMR173W,5.0
same,The level of expressed mRNA in the presence of chemical substance/The level of expressed mRNA in the absence of chemical substance,yeast gene YMR186W,1.3
same,The level of expressed mRNA in the presence of chemical substance/The level of expressed mRNA in the absence of chemical substance,yeast gene YNL064C,0.8
same,The level of expressed mRNA in the presence of chemical substance/The level of expressed mRNA in the absence of chemical substance,yeast gene YNL160W,5.8
same,The level of expressed mRNA in the presence of chemical substance/The level of expressed mRNA in the absence of chemical substance,yeast gene YNL241C,0.9
same,The level of expressed mRNA in the presence of chemical substance/The level of expressed mRNA in the absence of chemical substance,yeast gene YNR076W,1.2
same,The level of expressed mRNA in the presence of chemical substance/The level of expressed mRNA in the absence of chemical substance,yeast gene YOL064C,1.4
same,The level of expressed mRNA in the presence of chemical substance/The level of expressed mRNA in the absence of chemical substance,yeast gene YOL161C,1.0
same,The level of expressed mRNA in the presence of chemical substance/The level of expressed mRNA in the absence of chemical substance,yeast gene YOR008C,1.1
same,The level of expressed mRNA in the presence of chemical substance/The level of expressed mRNA in the absence of chemical substance,yeast gene YOR009W,0.9
same,The level of expressed mRNA in the presence of chemical substance/The level of expressed mRNA in the absence of chemical substance,yeast gene YOR010C,0.5
same,The level of expressed mRNA in the presence of chemical substance/The level of expressed mRNA in the absence of chemical substance,yeast gene YOR027W,1.6
same,The level of expressed mRNA in the presence of chemical substance/The level of expressed mRNA in the absence of chemical substance,yeast gene YOR208W,1.8
same,The level of expressed mRNA in the presence of chemical substance/The level of expressed mRNA in the absence of chemical substance,yeast gene YPL059W,1.3
same,The level of expressed mRNA in the presence of chemical substance/The level of expressed mRNA in the absence of chemical substance,yeast gene YPL106C,1.6
same,The level of expressed mRNA in the presence of chemical substance/The level of expressed mRNA in the absence of chemical substance,yeast gene YPL140C,0.3
same,The level of expressed mRNA in the presence of chemical substance/The level of expressed mRNA in the absence of chemical substance,yeast gene YPL194W,1.1
same,The level of expressed mRNA in the presence of chemical substance/The level of expressed mRNA in the absence of chemical substance,yeast gene YPL223C,1.5
same,The level of expressed mRNA in the presence of chemical substance/The level of expressed mRNA in the absence of chemical substance,yeast gene YPL240C,1.2
same,The level of expressed mRNA in the presence of chemical substance/The level of expressed mRNA in the absence of chemical substance,yeast gene YPR005C,0.8
